The values that follow come from PMC8717366, “Synthesis and Pharmacological Characterization of Visabron, a Backbone Cyclic Peptide Dual Antagonist of α4β1 (VLA-4)/α9β1 Integrin for Therapy of Multiple Sclerosis” (JACS Au, 2021).

For data set [1], the target named is T1, α1β1-collagen IV (Homo sapiens, UniProt P05556+P56199).
T1 construct: expressed in transfected cells; host or cells: K562 transfected with α1 integrin (gift of Dr. M. Hemler)
Description: Adhesion of α1-K562 overexpressor cells to immobilized collagen IV. As to conditions: α1-K562 overexpressing cells, collagen IV; n=6; Table S6; read-out: IC50 α1β1 (linear peptides). The class given is cell-based. The protocol: (§1) Cell adhesion assay was carried out as previously described[47] with minor modifications. The day before the experiment, each well was coated with VCAM-1 (3 mg/mL) immobilized on the 96-well plate in PBS by overnight incubation at 4 °C. Thereafter, nonspecific binding was blocked by incubating the wells with 1% (w/v) bovine serum albumin (BSA) in Hank’s Balanced Salt Solution (HBSS) containing 5 mM MgCl2 at room temperature for 1 h before use. The cells were labeled by incubation with 12.5 μM 5-chloromethylfluorescein diacetate (CMFDA) in HBSS without 1% BSA at 37 °C for 30 min. The labeled cells were then centrifuged at 1000 rpm and washed twice with HBSS containing 1% BSA to remove excess CMFDA. Labeled cells (about 1 × 10^5 cells/well) were plated on each well in the presence or absence of visabrons and incubated at 37 °C for 60 min. Unbound cells were removed by washing the wells three times with 1% (w/v) BSA in HBSS, and bound cells were lysed by the addition of 0.5% Triton X-100 (diluted in DDW). The fluorescence in each well was quantified with a SPECTRAFluor Plus plate reader (Tecan), at λex = 485 nm and λem = 530 nm. To determine the number of adhered cells from the fluorescence values, a standard curve was generated by serial dilution of known numbers of CMFDA-labeled cells. […]
(§2) Table S6. TMLD- linear peptides inhibition of adhesion of integrin expressing cells to the respective immobilized ligands a a The cells were incubated for 30 min at 37 °C with the cells (1 x 105) in the 96 -well plate, previously covered with extracellular matrix ligand, in 100 µL of HBSS containing calcium and magnesium. After being washed with the same buffer, the adhered cells were lysed by Triton X-100, and the plate was read using Tecan spectrofluorimeter. The inhibitory dose 50% (IC 50) values represent ing mean ± standard deviatio ns (n=6) were calculated from dose response curves. bJurkat cells,VCAM -1; c α9-SW480 overexpressing cells, VCAM-1; d α1-K562 overexpressing cells, collagen IV ;e α2-K562 overexpressing cells, collagen I; f K562 wild type

In data set [2] the target is T2, α2β1-collagen I (Homo sapiens, UniProt P05556+P17301).
T2 construct: expressed in transfected cells; host or cells: K562 transfected with α2 integrin (gift of Dr. M. Hemler)
The data set can be described thus: Adhesion of α2-K562 overexpressor cells to immobilized collagen I. The class given is cell-based. As to conditions: α2-K562 overexpressing cells, collagen I; n=6; Table S6; read-out: IC50 α2β1 (linear peptides). As for the experimental part:
as §1, §2

Data set [3] deals with T3, α5β1-fibronectin (Homo sapiens, UniProt P05556+P08648).
T3 construct: host or cells: K562 wild type
Description: Adhesion of wild-type K562 cells to immobilized fibronectin. The class given is cell-based. As to conditions: K562 wild type cells, fibronectin; n=6; Table S6; read-out: IC50 α5β1 (linear peptides). The protocol: as §1, §2

The target in data set [4] is T4, α4β1 (Jurkat lymphocytes-VCAM-1) (Homo sapiens, UniProt P05556+P13612).
T4 construct: host or cells: Jurkat (untreated or TNFα-treated)
The data set can be described thus: Adhesion of Jurkat lymphocytes to immobilized VCAM-1. The class given is cell-based. As to conditions: Jurkat cells, VCAM-1; n=6; Table S6; read-out: IC50 α4β1 (linear peptides). As for the experimental part: as §1, §2

Data set [5] deals with T5, α9β1 (Homo sapiens, UniProt P05556+Q13797).
T5 construct: generated by transfection with full-length α9 expression plasmid pcDNAIneoa9; expressed in transfected cells; host or cells: SW480 transfected with pcDNAIneoa9
The data set can be described thus: Adhesion of α9-SW480 overexpressing cells to VCAM-1. The class given is cell-based. As to conditions: n=6, Table S6, read-out: IC50 α9β1 (linear peptides). As for the experimental part:
as §2, with “type […]” for “type”
(1 picture or pasted object on this page, not shown here)

Data set [6] is classed as in vitro ADME, male Wistar rats. To be noted: incubation in rat plasma, 37 °C. The protocol: Figure S7- Metabolic stability of linear (blue) and cyclic Visabrons in rat plasma (n=3) […]
(orange, green, red). The […]
amount of peptides is presented as a percentage of the sample at time 0.
Figure S8- A. Calibration curve of Visabron c(4-4) (prepared by spiking the standard working stock solution with 15 μl of the different concentration, 20 μl metoprolol (10 μg/mL) and 135 -μl blank rat plasma. B. Profile of plasma concentration of Visabron c(4-4) vs time in rats following i.v. bolus administr ation of 0.515 mg/kg; C. semi - logarithmic plot of plasma concentration of Visabron c(4-4) vs time (n = 4 , mean ± SD). […]
For peptide sequencing, the protein digest mixture was subjected to electrospray ionization MS/MS analysis using a QTrap mass spectrometer, equipped with a nanospray source. […] Quantitation of free cysteine residues and disulfide bonds was done as previously described4. […]

Peptide text beside a SMILES is read from it. Where only a bound is given, the exact number is not on record here.

T3 sequence (P08648 42-894 limits assumed): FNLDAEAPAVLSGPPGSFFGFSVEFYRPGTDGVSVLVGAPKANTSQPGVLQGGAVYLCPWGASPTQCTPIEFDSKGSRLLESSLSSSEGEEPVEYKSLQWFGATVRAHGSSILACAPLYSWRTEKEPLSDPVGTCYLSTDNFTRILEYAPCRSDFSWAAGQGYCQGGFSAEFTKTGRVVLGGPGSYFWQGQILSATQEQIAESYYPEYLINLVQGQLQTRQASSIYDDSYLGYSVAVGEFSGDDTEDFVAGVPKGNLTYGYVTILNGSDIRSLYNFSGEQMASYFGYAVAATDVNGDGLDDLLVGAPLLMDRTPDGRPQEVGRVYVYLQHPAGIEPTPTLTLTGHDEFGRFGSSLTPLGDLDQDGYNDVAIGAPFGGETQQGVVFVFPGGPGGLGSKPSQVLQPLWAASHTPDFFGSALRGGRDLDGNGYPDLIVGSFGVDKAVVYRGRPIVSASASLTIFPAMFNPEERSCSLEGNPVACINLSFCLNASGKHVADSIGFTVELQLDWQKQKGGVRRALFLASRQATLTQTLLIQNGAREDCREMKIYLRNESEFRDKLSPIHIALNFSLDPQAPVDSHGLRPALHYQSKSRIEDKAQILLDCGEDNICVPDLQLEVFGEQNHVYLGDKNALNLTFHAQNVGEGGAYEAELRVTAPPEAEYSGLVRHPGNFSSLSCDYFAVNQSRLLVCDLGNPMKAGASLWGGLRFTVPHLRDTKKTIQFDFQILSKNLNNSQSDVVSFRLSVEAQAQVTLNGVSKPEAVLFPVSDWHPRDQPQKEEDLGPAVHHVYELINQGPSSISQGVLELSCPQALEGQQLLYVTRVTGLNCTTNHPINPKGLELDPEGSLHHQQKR
T3 sequence (P08648 895-1049 limits assumed): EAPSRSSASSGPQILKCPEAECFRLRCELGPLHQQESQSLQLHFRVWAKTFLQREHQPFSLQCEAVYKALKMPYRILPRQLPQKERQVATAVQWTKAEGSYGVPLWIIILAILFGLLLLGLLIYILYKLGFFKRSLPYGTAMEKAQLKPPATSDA
T3 sequence (P05556 21-798): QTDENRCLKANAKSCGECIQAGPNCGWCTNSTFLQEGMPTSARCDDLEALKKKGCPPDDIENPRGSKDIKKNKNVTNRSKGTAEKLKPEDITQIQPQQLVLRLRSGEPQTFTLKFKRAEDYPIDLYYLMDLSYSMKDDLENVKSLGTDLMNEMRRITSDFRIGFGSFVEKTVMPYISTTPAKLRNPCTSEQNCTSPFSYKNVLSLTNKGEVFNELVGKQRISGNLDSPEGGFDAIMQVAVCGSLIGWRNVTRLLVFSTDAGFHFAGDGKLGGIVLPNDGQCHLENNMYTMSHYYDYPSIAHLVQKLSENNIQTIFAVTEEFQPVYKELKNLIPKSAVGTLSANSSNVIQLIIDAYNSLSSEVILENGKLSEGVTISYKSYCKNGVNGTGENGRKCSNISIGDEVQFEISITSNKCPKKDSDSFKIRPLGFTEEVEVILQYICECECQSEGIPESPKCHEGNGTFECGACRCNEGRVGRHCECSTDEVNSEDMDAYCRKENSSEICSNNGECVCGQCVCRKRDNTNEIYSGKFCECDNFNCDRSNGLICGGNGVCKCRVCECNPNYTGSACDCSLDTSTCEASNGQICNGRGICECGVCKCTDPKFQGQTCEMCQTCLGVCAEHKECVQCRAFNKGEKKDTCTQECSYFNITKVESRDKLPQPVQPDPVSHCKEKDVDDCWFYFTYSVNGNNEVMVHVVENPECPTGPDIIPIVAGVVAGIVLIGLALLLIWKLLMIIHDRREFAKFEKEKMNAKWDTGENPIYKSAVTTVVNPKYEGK
T2 sequence (P17301 30-1181): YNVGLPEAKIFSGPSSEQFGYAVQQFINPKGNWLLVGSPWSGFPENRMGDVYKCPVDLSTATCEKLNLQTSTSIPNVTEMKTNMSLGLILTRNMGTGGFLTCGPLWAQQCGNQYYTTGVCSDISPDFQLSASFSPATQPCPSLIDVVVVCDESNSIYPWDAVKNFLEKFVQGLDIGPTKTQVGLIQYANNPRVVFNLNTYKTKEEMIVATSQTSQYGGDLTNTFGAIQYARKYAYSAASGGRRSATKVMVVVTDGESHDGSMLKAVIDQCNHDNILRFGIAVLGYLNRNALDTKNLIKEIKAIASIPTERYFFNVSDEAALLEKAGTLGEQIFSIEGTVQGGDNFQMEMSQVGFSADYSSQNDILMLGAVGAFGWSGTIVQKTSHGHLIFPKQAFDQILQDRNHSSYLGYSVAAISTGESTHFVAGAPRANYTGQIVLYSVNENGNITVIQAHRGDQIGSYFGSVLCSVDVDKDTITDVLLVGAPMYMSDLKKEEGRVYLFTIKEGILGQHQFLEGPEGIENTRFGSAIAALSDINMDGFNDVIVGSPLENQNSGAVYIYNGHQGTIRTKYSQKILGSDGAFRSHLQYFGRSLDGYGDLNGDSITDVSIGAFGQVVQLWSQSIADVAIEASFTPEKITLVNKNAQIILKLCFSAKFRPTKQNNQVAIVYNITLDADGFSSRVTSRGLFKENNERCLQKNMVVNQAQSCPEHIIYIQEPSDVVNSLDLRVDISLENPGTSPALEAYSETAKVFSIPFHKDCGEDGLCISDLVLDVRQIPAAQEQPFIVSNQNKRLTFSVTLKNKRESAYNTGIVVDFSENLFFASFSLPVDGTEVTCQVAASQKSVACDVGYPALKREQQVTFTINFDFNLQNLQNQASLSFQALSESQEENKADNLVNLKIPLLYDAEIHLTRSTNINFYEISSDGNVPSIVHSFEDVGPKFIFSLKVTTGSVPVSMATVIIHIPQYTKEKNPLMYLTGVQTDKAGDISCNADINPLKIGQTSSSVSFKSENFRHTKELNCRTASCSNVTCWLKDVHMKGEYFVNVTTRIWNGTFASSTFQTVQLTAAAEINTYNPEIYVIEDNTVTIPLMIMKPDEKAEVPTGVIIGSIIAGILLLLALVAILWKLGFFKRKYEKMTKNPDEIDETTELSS
T2 sequence (P05556 21-798): as the sequence (P05556 21-798) above
T1 sequence (P56199 29-1179): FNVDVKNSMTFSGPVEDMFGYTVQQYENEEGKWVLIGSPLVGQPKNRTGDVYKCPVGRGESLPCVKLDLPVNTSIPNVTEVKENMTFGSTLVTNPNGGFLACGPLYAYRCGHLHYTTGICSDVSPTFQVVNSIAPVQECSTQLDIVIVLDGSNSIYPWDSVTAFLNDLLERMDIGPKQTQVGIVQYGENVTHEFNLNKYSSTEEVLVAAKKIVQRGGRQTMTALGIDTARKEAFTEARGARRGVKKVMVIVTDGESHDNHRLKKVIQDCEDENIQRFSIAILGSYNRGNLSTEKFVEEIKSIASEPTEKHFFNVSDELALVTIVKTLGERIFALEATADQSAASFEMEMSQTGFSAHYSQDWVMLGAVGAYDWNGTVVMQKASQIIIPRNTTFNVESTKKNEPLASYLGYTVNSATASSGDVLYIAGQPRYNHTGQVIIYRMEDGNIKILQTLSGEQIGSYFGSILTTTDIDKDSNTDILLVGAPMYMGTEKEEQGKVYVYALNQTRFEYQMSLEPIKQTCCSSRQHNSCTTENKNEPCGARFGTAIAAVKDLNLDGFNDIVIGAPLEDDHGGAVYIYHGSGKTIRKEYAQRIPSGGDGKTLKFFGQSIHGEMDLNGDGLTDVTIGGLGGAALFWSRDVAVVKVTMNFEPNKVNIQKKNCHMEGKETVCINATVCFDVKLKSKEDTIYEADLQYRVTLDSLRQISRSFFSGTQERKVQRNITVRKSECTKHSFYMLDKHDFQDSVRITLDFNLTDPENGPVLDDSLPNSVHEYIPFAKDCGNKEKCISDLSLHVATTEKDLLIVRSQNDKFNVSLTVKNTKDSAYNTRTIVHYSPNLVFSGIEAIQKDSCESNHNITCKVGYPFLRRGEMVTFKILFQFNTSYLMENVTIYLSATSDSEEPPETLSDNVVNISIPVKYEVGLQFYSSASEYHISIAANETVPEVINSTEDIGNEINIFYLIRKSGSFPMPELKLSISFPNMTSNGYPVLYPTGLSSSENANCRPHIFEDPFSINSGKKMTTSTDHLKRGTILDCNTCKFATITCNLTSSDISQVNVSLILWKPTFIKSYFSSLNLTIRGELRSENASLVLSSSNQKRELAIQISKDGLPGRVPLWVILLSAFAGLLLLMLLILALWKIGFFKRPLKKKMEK
T1 sequence (P05556 21-798): as the sequence (P05556 21-798) above

Take `CSCC[C@H](NC(=O)[C@@H](NC(=O)CNC(=O)[C@@H](N)CCCCN)[C@@H](C)O)C(=O)N[C@@H](CC(C)C)C(=O)N[C@@H](CC(=O)O)C(=O)NCC(=O)N[C@@H](CC(C)C)C(N)=O` [sequence 6, KG39TMLDG44L] (H-KGTMLDGL-NH2; N-terminus and C-terminus assumed): the concentration for half-maximal inhibition (IC50) (as a rule, the concentration that inhibits the measured activity by half) is over 10 mM in data set [1]; over 10 mM in data set [2]; over 10 mM in data set [3]; 1.55 ± 0.125 mM in data set [4]; 1.45 ± 0.125 mM in data set [5]. Further, the half-life (commonly how long it takes for the measured level to halve) in data set [6] came to 7 min.
